Experimental data from PubChem BioAssay AID2060616 (Molecular Pharmacology Branch, DTP, NCI, 2025).
Where “and” joins values, the source holds several entries; their conditions need not be identical. Equal entries are not always repeated.

Tested on: 377384-186-R-J1-PDC complex spheroid viability
Assay: Anticancer human tumor 377384-186-R-J1-PDC patient-derived pancreatic carcinoma cell line growth inhibition [CLK]
Conditions: for viability, T/C: stronger effect = lower value; active means viability on the fitted dose curve at most 10% of control; inactive means the rest
Description: A high-throughput screen of multi-cell type tumor spheroids was designed to identify active combinations of […] and targeted small molecules. Complex spheroids include a stromal component modeled by human endothelial cells (HUVEC) and fibroblasts modeled by human mesenchymal stem cells (MSCs). The concentration ranges selected for each drug and investigational agent were based upon clinically achievable concentrations if the clinical Cmax of the agent was known.
Compounds. The drugs and investigational agents: cirtuvivint (SM08502; NSC835563), CC-671 (NSC850746), vemurafenib (NSC761431), tapotoclax (NSC804041), sotorasib (NSC818433), adagrasib (NSC831453), MRTX-1133 (NSC836407), BAY2416964 (NSC825713), copanlisib (NSC816437), inavolisib (NSC800729), abemaciclib (NSC768073), osimertinib (NSC779217), entinostat (NSC756642), eltanexor (KPT-8602, NSC794443), venetoclax (NSC766270), ceralasertib (NSC777638), bortezomib (NSC756655), olaparib (NSC753686), talazoparib (NSC767125), alisertib (NSC759677), peposertib (NSC802822), gemcitabine (NSC613327), 5-fluorouracil (NSC19893), SN-38 (NSC673596), oxaliplatin (NSC266046), paclitaxel (NSC125973), and doxorubicin (NSC123127), were obtained from the National Cancer Institute (NCI) Developmental Therapeutics Program Chemical Repository. The FDA-approved anticancer drug set is available from the Developmental Therapeutics Program at https://dtp.cancer.gov/organization/dscb/obtaining/available plates.htm. […] The stock solutions were prepared in dimethyl sulfoxide (DMSO, Sigma-Aldrich, St. Louis, MO, cat. D2650), except for the platinum complexes which were prepared in saline (Quality Biological, Gaithersburg, MD, cat. 114-055-101), at 800-fold the tested concentration and stored at -70 degrees C prior to their use. All drugs and investigational agents were tested over a range starting from a high concentration at or near the clinical Cmax and decreasing in half-log increments. If the clinical Cmax for an agent had not been determined, the highest concentration tested was 10 microM.
Cell Culture. All cells were maintained in an incubator at 37 degrees C and 5% CO2 with 95% humidity. The PDC lines were cultured according to standard operating procedures established by the NCI PDMR. Briefly, all PDCs were thawed and cultured in Matrigel-coated flasks prepared with a working solution of 1X Ham's F-12 nutrient mix, without supplementation (Invitrogen, Waltham, MA, cat. 11765054), 100 U/mL penicillin-streptomycin (Invitrogen, cat. 15140122), and 2.5% Matrigel (Corning Inc., Corning, NY, cat. 354248) for the first three passages. The 947758-054-R-J2-PDC line was cultured in 6B/Colon 1A media, which includes advanced DMEM/F-12 (Thermo Fisher Scientific, cat. 12634028), 10 mM HEPES (Thermo Fisher Scientific, cat. 15630080), 1X GlutaMAX supplement (Thermo Fisher Scientific, cat. 35050061), 0.1 mg/mL primocin (InvivoGen, cat. ant-pm-2), 10% defined fetal bovine serum, heat inactivated (HyClone Laboratories Inc., cat. SH30070.03HI), 1.25 mM N-Acetyl-L-cysteine (Sigma-Aldrich, cat. A9165), 10 mM nicotinamide (Sigma-Aldrich, cat. N0636), 1X B-27 supplement (Thermo Fisher Scientific, cat. 17504044), 1X N-2 supplement (Thermo Fisher Scientific, cat. 17502048), and 10 microM Y-27632 dihydrochloride (Tocris Bioscience, cat. 1254). The 876862-298-R-J1-PDC was cultured in 6E media, which includes all 6B/Colon 1A media components plus 50% L-WRN conditioned media (ATCC, cat. CRL-3276), 50 ng/mL recombinant human EGF recombinant protein (hEGF; Thermo Fisher Scientific, cat. PHG0311), 10 ng/mL recombinant human fibroblast growth factor 10 (hGFG-10; PeproTech, cat. 100-26), 1 ng/mL recombinant human fibroblast growth factor 2 (hFGF-2; PeproTech, cat. 100-18B), and 1 µM prostaglandin E2 (PGE2; Tocris, cat. 2296). The 227483-062-R1-J1-PDC line was cultured in Panc media, containing all 6E components except hFGF-2, with the addition of 500 nM SB-431542 (Selleckchem, cat. S1067) and 10 nM gastrin (Tocris, cat. 3006). […]
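Further: spheroids exposed to agents for 7 days before reading.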
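Wherever viability, T/C is given: luminescence signal used as a stand-in for viable cells.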

Nc1ccn(C2OC(CO)C(O)C2(F)F)c(=O)n1 (stereo not drawn)
10.8% and 6.86%: viability, T/C (compound 0.0316 µM)
< 0.0316 µM: IC50 (curve of compound)
active: viability, T/C (compound 0.1 µM) 4.28% and 3.83% | viability, T/C (compound 0.316 µM) 5.62% and 2.98% | viability, T/C (compound 1 µM) 2.41% and 2.75% | viability, T/C (compound 3.16 µM) 3.34% and 2.18% | viability, T/C (compound 10 µM) 2.14% and 1.73%

O=C(c1cc(Cc2n[nH]c(=O)c3ccccc23)ccc1F)N1CCN(C(=O)C2CC2)CC1
7.1 µM and 3.22 µM: IC50 (curve of compound)
inactive: viability, T/C (compound 0.0316 µM) 75.9% and 81.2% | viability, T/C (compound 0.1 µM) 78.6% and 74% | viability, T/C (compound 0.316 µM) 73.8% and 82.2% | viability, T/C (compound 1 µM) 74.3% and 63.9% | viability, T/C (compound 3.16 µM) 65.9% and 51.8% | viability, T/C (compound 10 µM) 43.2% and 39%

O=c1[nH]cc(F)c(=O)[nH]1
2.81 µM and 3.05 µM: IC50 (curve of compound)
inactive: viability, T/C (compound 0.0316 µM) 88.5% and 94.6% | viability, T/C (compound 0.1 µM) 82.7% and 110% | viability, T/C (compound 0.316 µM) 93.3% and 88.5% | viability, T/C (compound 1 µM) 68.9% and 68.5% | viability, T/C (compound 3.16 µM) 50.5% and 51.5% | viability, T/C (compound 10 µM) 45.1% and 41.7%

CCCS(=O)(=O)Nc1ccc(F)c(C(=O)c2c[nH]c3ncc(-c4ccc(Cl)cc4)cc23)c1F + CN1CCN(c2cc(C(=O)Nc3cc4cc(-c5cnn(C)c5)ccc4cn3)ccn2)CC1
< 0.0316 µM: IC50 (curve of first compound, second compound 0.316 µM) | IC50 (curve of first compound, second compound 1 µM) | IC50 (curve of first compound, second compound 3.16 µM) | IC50 (curve of first compound, second compound 10 µM)
inactive: viability, T/C (second compound 0.0316 µM, first compound 0.0316 µM) 122% | viability, T/C (second compound 0.0316 µM, first compound 0.1 µM) 122% | viability, T/C (second compound 0.0316 µM, first compound 0.316 µM) 141% | viability, T/C (second compound 0.0316 µM, first compound 1 µM) 140% | viability, T/C (second compound 0.0316 µM, first compound 3.16 µM) 117% | viability, T/C (second compound 0.0316 µM, first compound 10 µM) 64.8% | viability, T/C (second compound 0.1 µM, first compound 0.0316 µM) 117% | viability, T/C (second compound 0.1 µM, first compound 0.1 µM) 78.5% | viability, T/C (second compound 0.1 µM, first compound 0.316 µM) 135% | viability, T/C (second compound 0.1 µM, first compound 1 µM) 121% | viability, T/C (second compound 0.1 µM, first compound 3.16 µM) 97.1% | viability, T/C (second compound 0.1 µM, first compound 10 µM) 44.4% | viability, T/C (second compound 0.316 µM, first compound 0.0316 µM) 34.8% | viability, T/C (second compound 0.316 µM, first compound 0.1 µM) 21.6% | viability, T/C (second compound 0.316 µM, first compound 0.316 µM) 31.2% | viability, T/C (second compound 0.316 µM, first compound 1 µM) 33.4% | viability, T/C (second compound 0.316 µM, first compound 3.16 µM) 28.9% | viability, T/C (second compound 0.316 µM, first compound 10 µM) 15.4%
> 10 µM: IC50 (curve of first compound, second compound 0.0316 µM)
active: viability, T/C (second compound 1 µM, first compound 0.0316 µM) 1.07% | viability, T/C (second compound 1 µM, first compound 0.1 µM) 3.44% | viability, T/C (second compound 1 µM, first compound 0.316 µM) 1.53% | viability, T/C (second compound 1 µM, first compound 1 µM) 1.74% | viability, T/C (second compound 1 µM, first compound 3.16 µM) 1.66% | viability, T/C (second compound 1 µM, first compound 10 µM) 1.39% | viability, T/C (second compound 3.16 µM, first compound 0.0316 µM) 0.5% | viability, T/C (second compound 3.16 µM, first compound 0.1 µM) 0.57% | viability, T/C (second compound 3.16 µM, first compound 0.316 µM) 1.26% | viability, T/C (second compound 3.16 µM, first compound 1 µM) 0.82% | viability, T/C (second compound 3.16 µM, first compound 3.16 µM) 0.51% | viability, T/C (second compound 3.16 µM, first compound 10 µM) 0.48% | viability, T/C (second compound 10 µM, first compound 0.0316 µM) 0.54% | viability, T/C (second compound 10 µM, first compound 0.1 µM) 0.62% | viability, T/C (second compound 10 µM, first compound 0.316 µM) 0.58% | viability, T/C (second compound 10 µM, first compound 1 µM) 0.68% | viability, T/C (second compound 10 µM, first compound 3.16 µM) 0.66% | viability, T/C (second compound 10 µM, first compound 10 µM) 0.26%
8.85 µM: IC50 (curve of first compound, second compound 0.1 µM)
